# Results: patent US12655104B2, “Anticancer compounds selective for ER-positive cancers” (THE BOARD OF TRUSTEES OF THE UNIVERSITY OF ILLINOIS, priority 2020, dated 2026)
# Columns and labels:
# MCF-7 cells = assay: Alamar blue fluorescence viability (IC50), MCF-7; format: cell-based
# Description: (§1) Cancer Cell Lines: Culturing Conditions and Validation. All cell lines were cultured at 37° C. with 5% CO2. All ERα-positive cell lines were grown in media lacking phenol red. MCF-7 were grown in EMEM with 10% FBS and 1% penicillin-streptomycin (P/S). T47D were cultured in MEM with 10% FBS and 1% P/S. TYS and TDG cells were grown in MEM supplemented with 10% CD-FBS and 1% P/S. HCT-116 and MDA-MB-231 cells were cultured in RPMI-1640 supplemented with 10% FBS and 1% P/S. MDA-MB-436 cells were cultured in DMEM supplemented with 10% FBS and 1% P/S. HT-29 were cultured in McCoy's media supplemented with 10% FBS and 1% P/S. All cell lines were used directly from ATCC stocks and/or have been further authenticated using PowerPlex16HS Assay (Promega) as described previously.^54 In short, >1 million cells were harvested and lysed using the cell lysis buffer (50 mM Tris, 50 mM EDTA, 25 mM sucrose, 100 mM NaCl, 1% SDS, pH 8). DNA extraction and short tandem repeats (STRs) profiling for each cell line were carried out at the University of Arizona Genetics Core (UAGC). Autosomal STR profiles were compared to reference databases such as ATCC, DSMZ, and JCRB.
# (§2) Alamar Blue Fluorescence for Anticancer Activity (IC50). 2,000-15,000 cells per well were seeded a 96-well plate. Cells were allowed to adhere before DMSO stock solutions of test compounds were added to each well with a final concentration of DMSO in each well=1%; final volume: 100 μL. At the end of the desired incubation time (e.g., 24 or 72 hours), media in each well was aspirated and new fresh media (no compound, 100 μL) was added. Alamar blue solution (4 mg resazurin per 40 mL PBS) was then added (10 μL). After 2-6 hours incubation, each well's fluorescence (λexcit.=555 nm, λemission.=585 nm) was measured using a SpectraMax M3 plate reader (Molecular Devices). Percent dead was determined by comparison to a 100% dead control: 100 μM raptinal treated cells. Dose dependent curves and IC50 were calculated using Origin Pro V10.
# [1] = test system: anticipatory unfolded protein response (a-UPR); assay: a-UPR immunoblotting/western blot in MCF-7 cells; format: cell-based
# Description: a-UPR Immunoblotting/Western Blot Procedure. 400,000 MCF-7 cells/per well were seeded into 6 or 12 well plates and allowed to adhere overnight. Media was then aspirated from each well and then fresh media with diluted test compound (0.1% DMSO concentration) was added accordingly. Cells were incubated for 4 or 6 hours, then harvested. PBS-washed cell pellets were then lysed using RIPA buffer containing phosphatase (BioVision) and protease inhibitor cocktail (Calbiochem). Protein concentrations were determined using the BCA assay (Pierce). Lysates containing 10-15 μg of protein were loaded onto 4-20% gradient gels (BioRad), and SDS-PAGE was run. Proteins were then transferred onto membrane (PDVF Millipore) and blots blocked with BSA solution (2 g in 40 mL TBST) for one hour. After blocking, primary antibody was added and incubated overnight (using manufacturer's recommended dilutions). Following overnight incubation, blots were washed with TBST (5-minute incubation for each wash, washed 3 times), then incubated with HRP-linked secondary antibody for 1 hour in TBST. Blots were washed (10-minute incubation for each wash for a total of two ten-minute washes). SuperSignal West Pico Solution was then added following manufacturer's procedures and blots imaged with ChemiDoc.
# Antibodies. […]
# ERα− cancer cell lines = assay: Selectivity of cell killing, ERα+ versus ERα− cancer cell lines; format: cell-based; details: MDA-MB-231, HCT-116, HT-29; for potencies against ERα− cancer cell lines (in words): 24- and 72-hour incubations
# Description: as §1, §2
# [2] = Simulated gastric fluid (SGF) stability assay; format: in vitro ADME; details: 100 μM in SGF with pepsin; for half-life at 100 μM: simulated gastric fluid with pepsin, pH 1.2, one-phase decay, read-out: t1/2 (min) (95% CI)
# Description: Simulated Gastric Fluid (SGF) Stability Assay. SGF was prepared fresh by adding 3.2 g pepsin (Sigma Aldrich P7000) to 1000 mL of SGF (Fischer Scientific 7108-16) and the pH adjusted to 1.2 using a pH meter. This SGFwith pepsin solution was then warmed to 37° C. 990 μL of warmed SGFwith pepsin was then aliquoted into multiple Eppendorf tubes, followed by 10 μL of 10 mM DMSO stock solutions of test compounds. Erythromycin (MedChemExpress HY-B0220) is a positive control for this stability assay. Samples were incubated at 37° C. for the entire experiment with vortexing every 15 minutes. At each desired time point (0, 15, 30, 60, 120 minutes), a 100 μL aliquot is removed and quenched into 50 μL of acetonitrile. Samples are stored at 4° C. until all time points are complete. Samples were then vortexed and then clarified at 3,000 RPM for 10 minutes in a 4° C. centrifuge. Supernatants were collected and compound concentrations determined by LC-MS/MS (UIUC Metabolomics Center, Urbana, IL.). Determined compound concentrations were used to calculate percent remaining compared to t=0 samples.
SMILES,anticancer activity against MCF-7 cells (in words) (MCF-7 cells; MCF-7 cells),"a-UPR activation (P-AMPK, P-EIF2α, cleavage of ATF6α p90), western blot [1]",potencies against ERα− cancer cell lines (in words) (ERα− cancer cell lines),% Remaining after 120 min (SD) [2],half-life at 100 μM [2],fold change MCF-7 versus ERα− cell lines (ERα− cancer cell lines),"IC50 (MCF-7 cells; Homo sapiens, MCF7, MCF-7, 24 and 72 hr, read-out: IC50 values)"
"O=C1Nc2c(C(F)(F)F)cccc2[C@]1(c1ccc(O)cc1)N1CCC(F)(F)CC1 (single isomer, unassigned) [(S)-2]",devoid of any activity,No activation of the a-UPR,,,,,
"O=C1Nc2c(C(F)(F)F)cccc2[C@@]1(c1ccc(O)cc1)N1CCCC(F)(F)C1 [(R)-23, (R)-3-(3,3-difluoropiperidin-1-yl)-3-(4-hydroxyphenyl)-7-(trifluoromethyl)indolin-2-one]",,,double-digit micromolar,0±0%,10 min,,
"O=C1Nc2c(C(F)(F)F)cccc2[C@@]1(c1ccc(O)cc1)N1CCC(F)(F)C1 [(R)-24, (R)-3-(3,3-difluoropyrrolidin-1-yl)-3-(4-hydroxyphenyl)-7-(trifluoromethyl)indolin-2-one]",,,double-digit micromolar,20±1%,62 min,,
"O=C1Nc2c(C(F)(F)F)cccc2[C@@]1(c1ccc(O)cc1)N1CC(F)(F)C(F)(F)C1 [Compound (R)-26, (R)-3-(4-hydroxyphenyl)-3-(3,3,4,4-tetrafluoropyrrolidin-1-yl)-7-(trifluoromethyl)indolin-2-one]",,,double-digit micromolar,27±1%,77 min,≥ 3500,4 to 5 nM
